# How the values were obtained:
# Nt-hMLKL (2–154) = molecular target: T1, Nt-hMLKL (2–154) (Homo sapiens, UniProt Q8NB16); experiment: SPR binding to Nt-hMLKL; settings: for Kd: SPR, CM5 chip, 25 °C
# T1 construct: Nt-hMLKL (2–154), Nt-mMLKL (1–180), and Ct-hMLKL (183–471) were generated using the pBT7-N-His vector; His (N); made in house; host or cells: E. coli BL21
# T1 sequence (Q8NB16 2-154): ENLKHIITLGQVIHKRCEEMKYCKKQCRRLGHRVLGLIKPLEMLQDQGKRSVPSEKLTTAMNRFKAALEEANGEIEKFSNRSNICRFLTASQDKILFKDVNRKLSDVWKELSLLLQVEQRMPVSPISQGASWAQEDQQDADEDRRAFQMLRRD
# Description: The hMLKL plasmid (RC213152, OriGene, Rockville, MD, USA), and recombinant Wt-hMLKL (ab241453, Abcam) and Wt-mMLKL (MBS1379843, MyBioSource, San Diego, CA, USA) proteins were purchased. Nt-hMLKL (2–154), Nt-mMLKL (1–180), and Ct-hMLKL (183–471) were generated using the pBT7-N-His vector. Nt-hMLKL^C86A, Nt-hMLKL^F148A, -hMLKL^C86A/L89A/D94A, and Nt-hMLKL^R145A/R146A/F148A/M150A were generated using the Site-directed Mutagenesis Kit (EZ004S, Enzynomics, S. Korea). These constructs were subcloned into pBT7-N-His and pET-15b plasmid vectors. E. coli BL21 cells transformed with the cloned expression vectors were cultured in LB medium and supplemented with 100 μg/mL ampicillin until an OD at 600 nm of 0.5–0.6 was reached. The cultures were induced by 1 mM IPTG (367-93-1, Sigma-Aldrich). The cells were lysed and centrifuged. The clear supernatants were subjected to Ni-NTA affinity chromatography (175018169, QIAGEN, Hilden, Germany). Plasmids encoding mMLKL (1–464)–gyrase fusion constructs were kindly provided by Prof. James Murphy (Cell Signalling and Cell Death Division, The Walter and Eliza Hall Institute of Medical Research, Parkville, Victoria 3052, Australia).
# The interactions of Wt-hMLKL, Wt-mMLKL, Nt-mMLKL, Nt, and Ct-hMLKL proteins with Re-APO or Ox-APO were detected through SPR analysis using Biacore™ T200 (Cytiva, Marlborough, MA, USA). Each MLKL protein was immobilized on a CM5 sensor chip. To derive the Rligand values, coupling processes were performed based on the molecular weights of the MLKL protein (MW ligand) and Re-APO or Ox-APO (MW analyte). Re-APO or Ox-APO was injected into an HBS buffer (10 mM HEPES, 150 mM NaCl, 3.4 mM EDTA, and 0.005% Tween 20, pH 7.4) at 25 °C (10 μL/min flow rate). Sensorgrams were recorded and analyzed in real-time using the control software in the BIAcore T200 system. All data were analyzed using the BIA evaluation software (Cytiva).
# p-MLKL oligomer = experiment: MLKL oligomerization Western blot (non-reducing/reducing) in THP-1 cells; assay type: cell-based, human; settings: THP-1, TBZ, 8 h; for tetramerization and octamerization of p-MLKL: non-reducing conditions; for phosphorylation levels of RIP1, RIP3 and MLKL: reducing conditions
# Procedure: Fig. 2 Effect of redox-sensitive APO on MLKL oligomerization. A Chemical structure of APO. APO undergoes auto-oxidation to form the oxidized form (Ox-APO), while the addition of DTT preserves the reduced form (Re-APO). The red highlights indicate the sites where APO loses hydrogen and electrons during the oxidation process. B Real-time 1D ^1H NMR spectra showing the degree of oxidation of APO. APO was dissolved from its powdered form in DPBS and incubated at 25 °C for 36 h. Real-time 1D ^1H NMR spectra were measured at a 2 h intervals after filtration through a 0.2 μm syringe filter to remove precipitates. […] C MLKL oligomerization is inhibited by APO. THP-1 cells were treated with TBZ and Re-APO or Ox-APO for 8 h. Western blot analysis of WCLs was performed under non-reducing and reducing conditions using the indicated antibodies. Percentage changes of p-MLKL oligomer band relative to GAPDH were shown. The p value for MLKL oligomer band intensity was calculated based on the average intensity of the tetramer and octamer bands. Octa octamer, Tetra tetramer, Mono monomer. Mean ± SEM (n = 3). **p < 0.001, ns not significant, one-way ANOVA. D THP-1 cells were treated with TBZ and Ox-APO or Re-APO for 8 h and then stained with DAPI and MLKL for confocal microscopy. In the intensity graph, green indicates MLKL. The signal intensity of MLKL fluorescence from the plasma membrane to the cytosol was measured using FluoView FV1000 software. Mean ± SEM (n > 100). **p < 0.01, ***p < 0.001, one-way ANOVA. E J774A.1 mouse monocytic cells were treated with TBZ and 20 μM Re-APO or Ox-APO for 8 h. Western blot analysis of WCLs was performed under non-reducing and reducing conditions using the indicated antibodies.
# The cells were harvested and lysed in 1× RIPA buffer (R4100-010, GenDEPOT, Katy, TX, USA) containing protease (P3100-001, GenDEPOT) and phosphatase (1862495, Thermo Fisher Scientific) inhibitors. WCLs were then centrifuged at 20,000×g for 30 min at 4 °C and subjected to non-reducing or reducing 8–12% SDS-PAGE gel electrophoresis. The membrane was blocked with 5% non-fat milk in TBS and probed with antibodies. Antibodies to hMLKL (14993S), mMLKL (97705S), phospho-hMLKL (Ser358) (91689S), phospho-mMLKL (Ser345) (37333S), phospho-hRIP1 (Ser166) (65746S), mRIP1 (3493S), phospho-mRIP1 (Ser321) (38662S), phospho-hRIP3 (Ser227) (93654), mRIP3 (95702S), p-mRIP3 (Thr231/Ser232) (91702S), and LDH (2012S) (Cell Signaling Technology, Danvers, MA, USA), and GAPDH (LF-PA0018, Abfrontier, S. Korea), hRIP1 (ab72139, Abcam, Cambridge, UK), hRIP3 (sc-135170, Santa Cruz Biotechnology, Dallas, TX, USA), HMGB1 (ab78923, Abcam), and LAMP1 (ab24170, Abcam) antibodies were used.
Structure (SMILES),Kd (Nt-hMLKL (2–154)),fold difference of binding versus Re-APO (Nt-hMLKL (2–154); from KD values),tetramerization and octamerization of p-MLKL (p-MLKL oligomer),"phosphorylation levels of RIP1, RIP3 and MLKL (p-MLKL oligomer)"
CN1CCc2cccc3c4c(cc1c23)C=CC(=O)C4=O [Ox-APO],1.31 µM,~1000 fold,strongly inhibited,little effect
CN1CCc2cccc3c2C1Cc1ccc(O)c(O)c1-3 (stereo not shown) [Re-APO],1140 µM,–,less effective than Ox-APO,little effect

# Reference: paper PMC12518639, “Apomorphine is a novel necroptosis inhibitor targeting mixed lineage kinase domain-like protein oligomerization” (Cell Death Discovery, 2025)
